Assay results taken from paper PMC10574351, “First-Row Transition Metal Complexes Incorporating the 2-(2′-pyridyl)quinoxaline Ligand (pqx), as Potent Inflammatory Mediators: Cytotoxic Properties and Biological Activities against the Platelet-Activating Factor (PAF) and Thrombin” (Molecules, 2023).

What was measured:
[1] = tested on: PAF-induced aggregation in washed rabbit platelets (WRPs); assay: Inhibition of PAF-induced aggregation in washed rabbit platelets; type: cell-based; settings: for IC50: washed rabbit platelets, mean ± SD, read-out: IC50 (μM) towards PAF in WRPs
Protocol: The biological experiments of PAF-induced platelet aggregation as well as the evaluation of the inhibitory effect of its synthetic compounds were performed according to thoroughly described protocols. […] Briefly, in order to obtain the washed rabbit platelets (WRPs), platelet-rich plasma was washed on Ficoll–Paque cushions and adjusted to […] platelets/mL of Tyrode’s buffer, pH 7.2. The dilution of PAF was prepared using pyrogen-free 0.15 M NaCl containing 2.5 mg/mL of crystallized bovine serum albumin, required for dispersion of PAF. The compounds under investigation were firstly dissolved in the appropriate solvent that is: DMSO for pqx (0.010 M), H2O for CrCl3 × 3H2O (0.016 M), H2O for MnCl2 × 4H2O (0.004 M), DMSO-EtOH (4/1, v/v)) for FeCl2 × 4H2O (0.014 M), H2O for CoCl2 × 6H2O (0.010 M), H2O for NiCl2 × 6H2O (0.010 M), H2O for CuCl2 × 2H2O (0.008 M), H2O for ZnCl2 (0.013 M), DMSO for 1 (0.017 M), DMSO for 2 (0.010 M0, DMSO for 3 (0.004 M), DMSO for 4 (0.002 M), DMSO for 5 (0.003 M), DMSO-EtOH-H2O (25/1/1, v/v)) for 6 (0.006 M), DMSO for 7 (0.002 M) and aliquots of these solutions were then added in solutions (2.5 mg BSA/mL) of saline.
The experiment on the inhibitory effect of each compound of interest against the washed rabbit platelets (WRPs) aggregation was carried out as per the already described method. The platelets were from male New Zealand white rabbits (about 20), individually housed in stainless steel cages in an air-conditioned room (19 ± 1 °C, 55 ± 5% humidity on a 12/12 h artificial light/dark cycle). Blood samples were drawn from the main ear artery. Microliters of PAF in a final concentration of about 10^–10 M were added to the cuvette of the aggregometer, and the height of the platelet aggregation was monitored. The platelet aggregation induced by PAF, or thrombin was measured before (considered as 0% inhibition) and after the addition of various concentrations of the examined sample, creating a linear curve of percentage inhibition (ranging from 0 to 100%) versus different concentrations of the sample. From this curve, the concentration of the sample that inhibited 50% PAF-induced aggregation was calculated, and this value was defined as IC50 (Inhibitory concentration for 50% Inhibition). Dithiothreitol-insensitive PAF choline phosphotransferase, lyso-PAF:acetyl-CoA acetyltransferase and PAF-acetylhydrolase activity assays were performed on the homogenates of rabbit leukocytes while the activity of lipoprotein-associated phospholipase A2 was assessed on plasma as previously described. The experiments were performed in a model 400 vs. aggregometer of Chrono-Log (Havertown, PA, USA) coupled to a Chrono-Log recorder at 37 °C with constant stirring at 1200 rpm. The separation of platelets was performed with centrifugations in a 3L-R Heraeus Labofuge (Hvanau, Germany), a 400R Heraeus Labofuge and an RC-5B Sorvall (Newtown, CT, USA) refrigerated super speed centrifuge. Bovine serum albumin (BSA), PAF and analytical solvents for the biological assays were purchased from Sigma. […] The measurements were performed in duplicates for each sample concentration in three different WRP preparations, in order to ensure reproducibility. All experiments were also followed by appropriate control tests of the solvent used (saline solution of BSA, DMSO aliquots in a saline solution of BSA-2.5 mg BSA/mL saline- or just in saline), in WRPs. In the aggregometer cuvette (250 to 500 μL) the overall amount of added DMSO, contained in the solution of the sample under study, is not higher than 2–3 μL. All results were expressed as mean ± standard deviation (SD). The t-test was employed to assess differences among the IC50 values of each metal complex against either the PAF- or thrombin-induced aggregation. Differences were statistically significant when the statistical p-value was smaller than 0.05.

[2] = Stability in DMSO monitored by UV-Vis spectroscopy; type: physicochemical; settings: ambient temperature, monitored ~1 to 2 h
Protocol: The UV-Vis spectra of all complexes were recorded in DMSO at ambient temperature, immediately after dissolution, as this is the medium used for the biological assays. The UV-Vis spectrum of 1 will be included in a publication that follows. The relevant spectra of complexes 2, 3, 5 and 6 are shown below in Figure 6 and Figure 7, respectively, while that of complex 7 (concentrated solution) is included in Figure S9.
The UV-Vis absorption spectra of the light-yellow solutions of complexes 2, 3, 5 and 6 were monitored over a period of ~1 to 2 h (not shown) to ensure stability for the relevant biological assays. […] The electronic spectra of all complexes display four rather identical absorption bands in the range of 259–334 nm that can be attributed to π → π* and n → π* or charge-transfer transitions. These bands display medium to weak molar extinction coefficients and are in the expected region for similar complexes. For the cobalt(II) complex 2, the very low intensity and rather broad absorption, centered at ~680 nm can be attributed to d-d transitions. Also for the copper(II) complex 3, the broad absorption band in the range of 660–870 nm, is attributed to d-d transition.

[3] = tested on: human lymphocytes cultures; assay: Toxicity in healthy cells (human lymphocytes cultures); type: cell-based

| Compound | IC50 [1] | stability of UV-Vis absorption spectra in DMSO [2] | toxicity in healthy cells [3] | fold more potent against PAF as opposed to thrombin-induced aggregation ([1]; ratio of thrombin and PAF IC50) |
| --- | --- | --- | --- | --- |
| CS(C)=O.[Cl][Cu][Cl].c1ccc(-c2cnc3ccccc3n2)nc1 [Complex 3, [Cu(pqx)Cl2(DMSO)]] | 10.6 ± 1.4 µM | not modified over time | – | – |
| [Fe(pqx)Cl2]2 [Complex 6] | 1.79 ± 0.12 µM | not modified over time | – | – |
| mer-[Cr(pqx)Cl3(H2O)] [Complex 1] | 4.5 ± 0.9 µM | – | almost inactive (non-toxic) | ~12 fold |
| [Mn(pqx)(H2O)2Cl2]2 [Complex 5] | 39 ± 6 µM | not modified over time | – | – |
| [Ni(pqx)Cl2]2 [Complex 7] | 6.83 ± 0.42 µM | – | – | – |
| [Co(pqx)Cl2(DMF)] [Complex 2] | 4.1 ± 0.6 µM | not modified over time | – | – |
| [Cl][Zn][Cl].c1ccc(-c2cnc3ccccc3n2)nc1 [Complex 4, [Zn(pqx)Cl2]] | 3.3 ± 0.3 µM | – | almost inactive (non-toxic) | – |
